Read-outs that look alike come from different tables or passages of the source.
How the values were obtained:
[1] = target: GSK3α (GST-full length GSK3α) (Homo sapiens (Human), UniProt P49840); test: GSK3α TR-FRET kinase assay; format: biochemical
Procedure: (§1) TR-FRET Assay: The assay was performed in a white, 384 well, low volume, flat bottom plate (Grenier). After a 30 minute preincubation in assay buffer with the indicated concentration of compound, the kinase activity was initiated by the addition of the substrates. 1 nM GSK3α (GST-full length GSK3α [SignalChem G08-10G]) or 1 nM GSK3b (GST-full length GSK3b: [SignalChem G08-9G]) were then incubated at ambient temperature for 100 minutes in 10 μL of 50 mM Tris, pH 7.5, 20 mM MgCl2, 0.05 mM DTT, 100 μg/mL BSA and 1% DMSO, with 200 nM biotinylated peptide substrate (biotinylated and S645 phosphorylated glycogen synthase 631-650) and either 4 μM ATP (GSK3α, Table 16) or 2 μM ATP (GSK3b, Table 16) or 1 mM ATP (Table 17). The kinase activity was quenched with 2 μL of 250 mM EDTA. A 10 μL volume of 40 nM Strepavidin-d2, 2 nM Tb^2+-pSer641 antibody in TR-FRET Detection Buffer (Invitrogen) was then added. After 60 min at room temperature the plate was read on Envision plate reader using Ex: 340 nm, Em: 615 nm and […]. The normalized 665/615 Signal ratio versus log compound concentration was analyzed by XLFIT to yield IC50 values.

[2] = target: GSK3b (GST-full length GSK3b) (Homo sapiens (Human), UniProt P49841); test: GSK3b TR-FRET kinase assay; format: biochemical
Chain of GSK3b (GST-full length GSK3b) (P49841 whole entry): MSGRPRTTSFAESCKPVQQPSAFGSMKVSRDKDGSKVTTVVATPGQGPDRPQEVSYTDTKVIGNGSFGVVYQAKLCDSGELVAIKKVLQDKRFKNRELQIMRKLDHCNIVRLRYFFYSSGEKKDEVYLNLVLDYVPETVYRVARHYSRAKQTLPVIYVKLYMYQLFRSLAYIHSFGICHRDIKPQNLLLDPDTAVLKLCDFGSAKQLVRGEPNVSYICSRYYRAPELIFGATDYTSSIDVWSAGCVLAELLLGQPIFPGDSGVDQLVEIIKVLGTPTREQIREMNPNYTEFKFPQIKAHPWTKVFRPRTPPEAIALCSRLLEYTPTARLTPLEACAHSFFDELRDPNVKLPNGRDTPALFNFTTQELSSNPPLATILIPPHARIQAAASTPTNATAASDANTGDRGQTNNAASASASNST
Procedure: as §1

[3] = 1 nM GSK3α, 4 μM ATP, 30 minute preincubation, geometric mean, read-out: GSK3-A TR-FRET BIOCHEMICAL (TR-FRET), GMean, IC50
[4] = GSK3-A (TR-FRET 1 mM ATP), GMean, IC50, 1 mM ATP, geometric mean
[5] = 1 nM GSK3b, 2 μM ATP, 30 minute preincubation, geometric mean, read-out: GSK3-B TR-FRET BIOCHEMICAL (TR-FRET), GMean, IC50
[6] = GSK3-B (TR-FRET 1 mM ATP), GMean, IC50, 1 mM ATP, geometric mean
[7] = 1 nM GSK3α, 4 μM ATP, 30 minute preincubation, Table 16, read-out: GSK3-A TR-FRET BIOCHEMICAL (TR-FRET)
[8] = 1 nM GSK3b, 2 μM ATP, 30 minute preincubation, Table 16, read-out: GSK3-B TR-FRET BIOCHEMICAL (TR-FRET)
[9] = read-out: GSK3-A (TR-FRET 1 mM ATP), GMean, IC50, 1 mM ATP, geometric mean
[10] = read-out: GSK3-B (TR-FRET 1 mM ATP), GMean, IC50, 1 mM ATP, geometric mean

Chain of GSK3α (GST-full length GSK3α) (P49840 whole entry): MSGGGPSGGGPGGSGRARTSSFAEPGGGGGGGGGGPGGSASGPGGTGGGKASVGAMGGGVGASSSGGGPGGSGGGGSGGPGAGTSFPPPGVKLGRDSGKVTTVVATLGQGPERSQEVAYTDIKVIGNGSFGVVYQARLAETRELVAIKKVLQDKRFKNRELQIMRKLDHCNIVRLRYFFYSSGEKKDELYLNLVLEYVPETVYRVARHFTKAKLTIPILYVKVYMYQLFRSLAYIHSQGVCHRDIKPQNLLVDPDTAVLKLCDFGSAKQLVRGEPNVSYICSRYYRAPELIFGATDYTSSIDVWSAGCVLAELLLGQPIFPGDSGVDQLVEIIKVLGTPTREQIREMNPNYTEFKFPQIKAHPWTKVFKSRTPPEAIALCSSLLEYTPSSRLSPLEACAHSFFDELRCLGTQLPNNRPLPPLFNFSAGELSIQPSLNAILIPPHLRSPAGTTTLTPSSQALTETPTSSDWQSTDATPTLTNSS

IC50 [1, 3]	IC50 [2, 5]	IC50 [1, 9]	IC50 [2, 10]	Compound	also measured
		> 5 µM	> 5 µM	CC(C)(C)Cc1[nH]nc2c1C1(CN(C(=O)OCc3ccccc3)C1)C1=C(CC(C)(C)CC1=O)N2 [Compound 90330]	
		> 5 µM	> 5 µM	CC(C)(C)Cc1[nH]nc2c1C1(CCN(c3ccccc3)CC1)C1=C(CC(C)(C)CC1=O)N2 [Compound 92315]	
		> 5 µM	> 5 µM	CC(C)(C)Cc1[nH]nc2c1[C@@](C)(c1cccc(S(=O)(=O)CC3CC3)c1)C1=C(CC(C)(C)NC1=O)N2 [Compound 108006]	
		> 5 µM	1 to 5 µM	COc1cncc(F)c1-c1cccc([C@@]2(C)C3=C(CC(C)(C)CC3=O)Nc3n[nH]c(CC(C)(C)C)c32)c1 [Compound 108956]	
		1 to 5 µM	0.1 to 1 µM	CC(C)(C)Cc1[nH]nc2c1C1(COc3ccccc31)C1=C(CC(C)(C)CC1=O)N2 (centres unmarked) [Compound 117093]	
		1 to 5 µM	0.1 to 1 µM	CN1CC2(C3=C(CC(C)(C)CC3=O)Nc3n[nH]c(C4CC(F)(F)C4)c32)c2ccccc21 (centres unmarked) [Compound 119047]	
		> 5 µM	> 5 µM	Cn1cc(-c2cccc([C@@]3(C)C4=C(CC(C)(C)CC4=O)Nc4n[nH]c(CC(C)(C)C)c43)c2)cn1 [Compound 126367]	
		> 5 µM	> 5 µM	CC(C)(C)Cc1[nH]nc2c1[C@@](C)(c1cccc(S(=O)(=O)C(F)(F)F)c1)C1=C(CC(C)(C)CC1=O)N2 [Compound 126396]	
		> 5 µM	1 to 5 µM	CC1(C)CC(=O)C2=C(C1)Nc1n[nH]c(C3CC(F)(F)C3)c1C21COc2ccccc21 (centres unmarked) [Compound 127429]	
1 to 5 µM	> 5 µM			CCC1(c2ccc(F)cc2)C2=C(CC(C)(C)CC2=O)Nc2n[nH]cc21 (centres unmarked) [Compound 772965]	
0.1 to 1 µM	> 5 µM			CC1(C)CC(=O)C2=C(C1)Nc1n[nH]cc1C2(C)c1cc(F)cc(F)c1 (centres unmarked) [Compound 785735]	
≤ 0.1 µM	0.1 to 1 µM			CCC1(c2ccccc2)C2=C(CC3(CCCC3)CC2=O)Nc2n[nH]cc21 (centres unmarked) [Compound 785737]	
≤ 0.1 µM	0.1 to 1 µM			CCC1(c2cccc(C)c2)C2=C(CC(C)(C)CC2=O)Nc2n[nH]cc21 (centres unmarked) [Compound 785738]	
> 5 µM	> 5 µM			CC[C@]1(c2ccccc2)C2=C(C[C@H](C)CC2=O)Nc2n[nH]cc21 [Compound 789011]	
≤ 0.1 µM	0.1 to 1 µM			CCC1(c2cccc(Br)c2)C2=C(CC(C)(C)CC2=O)Nc2n[nH]cc21 (centres unmarked) [Compound 789312]	
0.1 to 1 µM	1 to 5 µM			CCC1(c2ccccc2)C2=C(CC3(CC3)CC2=O)Nc2n[nH]cc21 (centres unmarked) [Compound 789330]	
0.1 to 1 µM	0.1 to 1 µM			C[C@H]1CC(=O)C2=C(C1)Nc1n[nH]cc1[C@]2(C)c1ccccc1 [Compound 789332]	
> 5 µM	> 5 µM			C[C@@H]1CC(=O)C2=C(C1)Nc1n[nH]cc1[C@@]2(C)c1ccccc1 [Compound 789333]	
0.1 to 1 µM	1 to 5 µM			C[C@H]1CC(=O)C2=C(C1)Nc1n[nH]cc1[C@@]2(C)c1ccccc1 [Compound 789334]	

The remaining lines, values behind:

Compound	IC50 [1, 3]	IC50 [2, 5]	IC50 [1, 9]	IC50 [2, 10]	also measured
CCC1(c2cccc(C(F)(F)F)c2)C2=C(Nc3n[nH]cc31)C(F)C(C)(C)CC2=O (single isomer, unassigned) [Compound 837753, 4-ethyl-8-fluoro-7,7-dimethyl-4-(3-(trifluoromethyl)phenyl)-2,4,6,7,8,9-hexahydro-5H-pyrazolo[3,4-b]quinolin-5-one]	0.1 to 1 µM	> 5 µM			IC50 [1, 4]: > 5 µM; IC50 [2, 6]: > 5 µM
CCC1(c2cccc(C(F)(F)F)c2)C2=C(Nc3n[nH]cc31)C(F)C(C)(C)CC2=O (single isomer, unassigned) [Compound 837803, 4-ethyl-8-fluoro-7,7-dimethyl-4-(3-(trifluoromethyl)phenyl)-2,4,6,7,8,9-hexahydro-5H-pyrazolo[3,4-b]quinolin-5-one]	1 to 5 µM	> 5 µM			IC50 [1, 4]: > 5 µM; IC50 [2, 6]: > 5 µM
CCC1(c2cccc(-c3cn(C)nc3C)c2)C2=C(Nc3n[nH]cc31)C(F)C(C)(C)CC2=O (single isomer, unassigned) [Compound 947650, 4-(3-(1,3-dimethyl-1H-pyrazol-4-yl)phenyl)-4-ethyl-8-fluoro-7,7-dimethyl-2,4,6,7,8,9-hexahydro-5H-pyrazolo[3,4-b]quinolin-5-one]					IC50 [1, 7]: ≤ 0.1 µM; IC50 [1, 4]: 0.1 to 1 µM; IC50 [2, 8]: ≤ 0.1 µM; IC50 [2, 6]: > 5 µM
CCC1(c2cccc(-c3cn(C)nc3C)c2)C2=C(Nc3n[nH]cc31)C(F)C(C)(C)CC2=O (single isomer, unassigned) [Compound 947652, 4-(3-(1,3-dimethyl-1H-pyrazol-4-yl)phenyl)-4-ethyl-8-fluoro-7,7-dimethyl-2,4,6,7,8,9-hexahydro-5H-pyrazolo[3,4-b]quinolin-5-one]					IC50 [1, 7]: ≤ 0.1 µM; IC50 [1, 4]: 0.1 to 1 µM; IC50 [2, 8]: 0.1 to 1 µM; IC50 [2, 6]: > 5 µM
CCC1(c2cccc(-c3cn(C)nc3C)c2)C2=C(Nc3n[nH]cc31)C(F)C(C)(C)CC2=O (single isomer, unassigned) [Compound 947653, 4-(3-(1,3-dimethyl-1H-pyrazol-4-yl)phenyl)-4-ethyl-8-fluoro-7,7-dimethyl-2,4,6,7,8,9-hexahydro-5H-pyrazolo[3,4-b]quinolin-5-one]					IC50 [1, 7]: ≤ 0.1 µM; IC50 [2, 8]: 0.1 to 1 µM
CC1(C)CC(=O)C2=C(C1)Nc1n[nH]cc1[C@]21CO[C@@H](C2CC2)C1 (stereo in doubt) [Compound 913185]					IC50 [1, 7]: 0.1 to 1 µM; IC50 [2, 8]: 1 to 5 µM
CC(C)(C)Cc1[nH]nc2c1C(C)(c1cccc(S(=O)(=O)N3CCCC3)c1)C1=C(CC(C)(C)NC1=O)N2 (centres unmarked) [Compound 108791]			1 to 5 µM	0.1 to 1 µM	
CC(C)(C)Cc1[nH]nc2c1[C@@](C)(c1cccc(S(=O)(=O)N3CCCC3)c1)C1=C(CC(C)(C)NC1=O)N2 [Compound 108794]			> 5 µM	> 5 µM	
CC1(C)CC2=C(C(=O)N1)[C@](C)(c1cccc(S(C)(=O)=O)c1)c1c(n[nH]c1C1CC1)N2 [Compound 114744]					IC50 [1, 4]: > 5 µM; IC50 [2, 6]: > 5 µM
CN1CC2(C3=C(CC(C)(C)CC3=O)Nc3n[nH]c(CC(C)(C)C)c32)c2ccccc21 (centres unmarked) [Compound 125979]			> 5 µM	1 to 5 µM	
Cn1cncc1-c1cccc([C@@]2(C)C3=C(CC(C)(C)CC3=O)Nc3n[nH]c(CC(C)(C)C)c32)c1 [Compound 126015]			> 5 µM	> 5 µM	
C[S+]([O-])c1cccc(C2(C)C3=C(CC(C)(C)CC3=O)Nc3n[nH]c(CC(C)(C)C)c32)c1 (centres unmarked) [Compound 126191]			> 5 µM	0.1 to 1 µM	
Cc1cccc(C2(C)C3=C(CC(C)(C)CC3=O)Nc3n[nH]cc32)c1 (centres unmarked) [Compound 785736]	≤ 0.1 µM	0.1 to 1 µM			
CCC1(c2ccc(C)cc2)C2=C(CC(C)(C)CC2=O)Nc2n[nH]cc21 (centres unmarked) [Compound 785739]	0.1 to 1 µM	> 5 µM			
CCC1(CC)C2=C(CC(C)(C)CC2=O)Nc2n[nH]c(C)c21 [Compound 786061]					IC50 [1, 7]: 0.1 to 1 µM; IC50 [2, 8]: > 1.67 µM
CC1(C)CC(=O)C2=C(C1)Nc1n[nH]cc1C2(C)C [Compound 786065]					IC50 ([1]; 1 nM GSK3α, 4 μM ATP, 30 minute preincubation, Table 16, read-out: GSK3-A TR-FRET BIOCHEMICAL (TR-FRET), IC50): 1 to 5 µM; IC50 ([2]; 1 nM GSK3b, 2 μM ATP, 30 minute preincubation, Table 16, read-out: GSK3-B TR-FRET BIOCHEMICAL (TR-FRET), IC50): > 1.67 µM
Cc1[nH]nc2c1C1(CCCC1)C1=C(CC(C)(C)CC1=O)N2 [Compound 786072]					IC50 [1, 7]: ≤ 0.1 µM; IC50 [2, 8]: ≤ 0.1 µM
CC[C@@]1(c2ccccc2)C2=C(C[C@H](C)CC2=O)Nc2n[nH]cc21 [Compound 789009]	> 5 µM	> 5 µM			
CC[C@@]1(c2ccccc2)C2=C(C[C@@H](C)CC2=O)Nc2n[nH]cc21 [Compound 789010]	0.1 to 1 µM	0.1 to 1 µM			
CC[C@]1(c2ccccc2)C2=C(C[C@H](C)CC2=O)Nc2n[nH]cc21 [Compound 789013]	0.1 to 1 µM	> 5 µM			
CC1(C)CC(=O)C2=C(C1)Nc1n[nH]cc1C2(C)c1cccc(Br)c1 (centres unmarked) [Compound 789277]	≤ 0.1 µM	0.1 to 1 µM			
C[C@@H]1CC(=O)C2=C(C1)Nc1n[nH]cc1[C@]2(C)c1ccccc1 [Compound 789331]	> 5 µM	> 5 µM			
CC1(C)CC(=O)C2=C(C1)Nc1n[nH]cc1C2(C)c1cc(Cl)cc(Cl)c1 (centres unmarked) [Compound 789337]	0.1 to 1 µM	1 to 5 µM			

Reference: US20250313563A1, “GLYCOGEN SYNTHASE KINASE 3 INHIBITORS AND USES THEREOF” (The Broad Institute, Inc., priority 2022, published 2025)
